Legend:
[1] = tested on: human breast cancer patient derived tumor (OD-BRE-0438); assay: Growth inhibiting effect of compound A on patient-derived tumor graft in mice (Reference Example 1, no pretreatment); assay type: in vivo; conditions: NOD-SCID mice
Method: (§1) The long and short diameters of the tumors were measured using an electronic digital caliper (Digimatic™ caliper by Mitsutoyo Corp.). The tumor volumes were calculated by the following formula.
(§2) Tumor volume (mm^3)=Long diameter (mm)×short diameter (mm)×short diameter (mm)/2
Reference Example 1 Growth inhibiting effect of compound A on human breast cancer patient derived tumor (OD-BRE-0438)
The antitumor effect of administering compound A was evaluated using NOD-SCID mice (NOD.CB17-Prkdcscid/J, female, Charles River Japan), with 6 mice per group.
Tumor slices were grafted under the mouse skin and subcultured. The tumors excised from the mice were cut to about 4 mm-square, and a trocar ((φ3.5 mm) was used for grafting under the skin of the right flank of each mouse, for evaluation of the antitumor effect.
A 1 mg/mL solution of β-estradiol (FujiFilm-Wako) was prepared with 99.5% ethanol (FujiFilm-Wako). It was then adjusted to a final concentration of […] using supply-use sterilized water. The mice were given free access to food from the day of tumor grafting until the end of the test.
Compound A was dissolved in purified water to a concentration of 2.5 mg/mL. On the 32nd day after tumor grafting, the mice were divided into groups in such a manner that the average tumor volumes were approximately the same in each group. The tumor volumes were calculated by the same method as Example 1.
Compound A was orally administered to the mice in each group at a dose of 50 mg/kg (20 mL/kg), once per day for 14 days. The control group was untreated.
The tumor volume and body weight of each mouse were measured on day 3, 7, 10 and 14 after starting administration of compound A. The changes in mean tumor volume in each group are shown in Table 2 and FIG. 2.

[2] = tested on: human breast cancer patient-derived tumor (OD-BRE-0438); assay: Growth inhibition effect of compound A after palbociclib and fulvestrant administration, patient-derived tumor graft in mice; assay type: in vivo; conditions: NOD-SCID mice, after 14 days palbociclib + fulvestrant
Method: Example 1 Growth inhibition effect of compound A after palbociclib and fulvestrant administration for human breast cancer patient-derived tumor (OD-BRE-0438) Using NOD-SCID mice (NOD.CB17-Prkdcscid/J, female, Charles River Japan), with 5 to 6 mice per group, the antitumor effect of administering compound A after completion of an administration period with palbociclib and fulvestrant was evaluated.
OD-BRE-0438 is a tumor line from an estrogen receptor-positive breast cancer patient, established by Oncodesign Co. The tumor slices were grafted under the mouse skin and subcultured. The tumors excised from the mice were cut to about 4 mm-square, and a trocar (φ3.5 mm) was used for grafting under the skin of the right flank of each mouse.
A 1 mg/mL solution of β-estradiol (FujiFilm-Wako) was prepared with 99.5% ethanol (FujiFilm-Wako). It was then adjusted to a final concentration of 2.5 μg/mL using supply-use sterilized water. The mouse were given free access to food from the day of tumor grafting until the end of the test.
as §1, §2
Commercially available palbociclib isethionate (Selleck Chemicals) was adjusted to 10 mg/mL concentration with 50 mM sodium lactate buffer (pH 4.0). A commercially available fulvestrant formulation (trade name: Faslodex Intramuscular Injection 250 mg, by AstraZeneca) was used directly.
Palbociclib and fulvestrant administration was initiated from the 26th day after tumor grafting. Palbociclib was orally administered once per day for 14 days at a dosage of 100 mg/kg (10 mL/kg). Fulvestrant was hypodermically injected on the 26th and 33rd day, at a dosage of 250 mg/kg (5 mL/kg).
On the 40th day, the mice were divided into groups in such a manner that the average tumor volumes were approximately the same in each group. The control group consisted of 6 mice, and the compound A-administered group consisted of 5 mice, at different dosages.
Compound A was dissolved in purified water to a concentration of 2.5 mg/mL. Compound A was orally administered to the mice in each group at a dose of 25 mg/kg (10 mL/kg) or 50 mg/kg (20 mL/kg), once per day for 14 days. The control group was untreated.
The tumor volume and body weight of each mouse were measured on day 3, 7, 10 and 14 after starting administration of compound A. The changes in mean tumor volume in each group are shown in Table 1 and FIG. 1.

[3] = Day 0 (baseline at grouping), compound A 50 mg/kg oral once per day
[4] = Day 3, compound A 50 mg/kg oral once per day
[5] = Day 7, compound A 50 mg/kg oral once per day
[6] = Day 10, compound A 50 mg/kg oral once per day
[7] = Day 14, compound A 50 mg/kg oral once per day

Compound: CNC(=O)n1ccc2cc(Oc3ccnc(NC(=O)c4ccc(C5CCN(CCO)CC5)cc4)c3)c(OCCOC)cc21 [Compound A, 5-((2-(4-(1-(2-hydroxyethyl)piperidin-4-yl)benzamide)pyridin-4-yl)oxy)-6-(2-methoxyethoxy)-N-methyl-1H-indole-1-carboxamide]
- mean tumor volume [1, 3]: 234.1 mm^3
- mean tumor volume [1, 4]: 267.0 mm^3
- mean tumor volume [1, 5]: 338.8 mm^3
- mean tumor volume [1, 6]: 380.8 mm^3
- mean tumor volume [1, 7]: 403.4 mm^3
- mean tumor volume ([2]; Day 0 (baseline at grouping), compound A 25 mg/kg oral once per day): 261.4 mm^3
- mean tumor volume [2, 3]: 262.6 mm^3
- mean tumor volume ([2]; Day 3, compound A 25 mg/kg oral once per day): 211.9 mm^3
- mean tumor volume [2, 4]: 174.8 mm^3
- mean tumor volume ([2]; Day 7, compound A 25 mg/kg oral once per day): 167.6 mm^3
- mean tumor volume [2, 5]: 136.1 mm^3
- mean tumor volume ([2]; Day 10, compound A 25 mg/kg oral once per day): 138.3 mm^3
- mean tumor volume [2, 6]: 110.4 mm^3
- mean tumor volume ([2]; Day 14, compound A 25 mg/kg oral once per day): 134.1 mm^3
- mean tumor volume [2, 7]: 96.6 mm^3

— patent publication US20230149381A1, “BREAST CANCER THERAPEUTIC AGENT” (Eisai R&D Management Co., Ltd., priority 2020, published 2023)
